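Results reflect a 48-hour exposure of cells in 96-well plates to compound at five concentrations. Here, GI50 denotes the concentration required for 50% inhibition of growth.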 Calls of active or inactive are those of the source. No stated cut-off is given here; in the data, active = GI50 up to about 1.1 µM and inactive = higher.
Assays:
Experiment in all cases: growth of human tumour cells (NCI), 48 h
OVCAR-8 = tested on: OVCAR-8
HCT-116 = tested on: HCT-116
UO-31 = tested on: UO-31
UACC-62 = tested on: UACC-62
COLO 205 = tested on: COLO 205
K562 = tested on: K562
SF-268 = tested on: SF-268
HOP-18 = tested on: HOP-18
RPMI-8226 = tested on: RPMI-8226
LOX IMVI = tested on: LOX IMVI
A549 = tested on: A549
NCI-H23 = tested on: NCI-H23
U-251 = tested on: U-251
HCC 2998 = tested on: HCC 2998
LXFL 529 = tested on: LXFL 529
HOP-62 = tested on: HOP-62
SW-620 = tested on: SW-620
NCI-H460 = tested on: NCI-H460
HL-60 = tested on: HL-60
OVCAR-4 = tested on: OVCAR-4
M14 = tested on: M14
SK-MEL-5 = tested on: SK-MEL-5
A498 = tested on: A498
KM-20L2 = tested on: KM-20L2
OVCAR-3 = tested on: OVCAR-3
SF-295 = tested on: SF-295
HOP-92 = tested on: HOP-92
HCT-15 = tested on: HCT-15
DMS-114 = tested on: DMS-114
SN12C = tested on: SN12C
OVCAR-5 = tested on: OVCAR-5
DMS-273 = tested on: DMS-273
M19-MEL = tested on: M19-MEL
CCRF-CEM = tested on: CCRF-CEM
IGROV-1 = tested on: IGROV-1
SK-OV-3 = tested on: SK-OV-3
SNB-19 = tested on: SNB-19
ACHN = tested on: ACHN
Malme-3M = tested on: Malme-3M
DLD-1 = tested on: DLD-1
NCI-H226 = tested on: NCI-H226
MOLT-4 = tested on: MOLT-4
TK-10 = tested on: TK-10
SK-MEL-28 = tested on: SK-MEL-28
786-0 = tested on: 786-0
CAKI-1 = tested on: CAKI-1
UACC-257 = tested on: UACC-257
SNB-78 = tested on: SNB-78
KM12 = tested on: KM12
SK-MEL-2 = tested on: SK-MEL-2
XF498 = tested on: XF498
SF-539 = tested on: SF-539
EKVX = tested on: EKVX
HT-29 = tested on: HT-29
RXF 393 = tested on: RXF 393
SNB-75 = tested on: SNB-75
SR = tested on: SR

Compound: CCCCCCCC(=O)OCC(COC(=O)C(C)(C)C)OC(=O)Cc1ccccc1 (stereo not drawn)
- GI50 (OVCAR-8): > 100 µM (inactive)
- GI50 (HCT-116): > 100 µM (inactive)
- GI50 (UO-31): > 100 µM (inactive)
- GI50 (UACC-62): > 100 µM (inactive)
- GI50 (COLO 205): > 100 µM (inactive)
- GI50 (K562): > 100 µM (inactive)
- GI50 (SF-268): > 100 µM (inactive)
- GI50 (HOP-18): > 100 µM (inactive)
- GI50 (RPMI-8226): > 100 µM (inactive)
- GI50 (LOX IMVI): > 100 µM (inactive)
- GI50 (A549): > 100 µM (inactive)
- GI50 (NCI-H23): > 100 µM (inactive)
- GI50 (U-251): > 100 µM (inactive)
- GI50 (HCC 2998): > 100 µM (inactive)
- GI50 (LXFL 529): > 100 µM (inactive)
- GI50 (HOP-62): > 100 µM (inactive)
- GI50 (SW-620): > 100 µM (inactive)
- GI50 (NCI-H460): > 100 µM (inactive)
- GI50 (HL-60): > 100 µM (inactive)
- GI50 (OVCAR-4): > 100 µM (inactive)
- GI50 (M14): > 100 µM (inactive)
- GI50 (SK-MEL-5): > 100 µM (inactive)
- GI50 (A498): > 100 µM (inactive)
- GI50 (KM-20L2): > 100 µM (inactive)
- GI50 (OVCAR-3): 58.3 µM (inactive)
- GI50 (SF-295): > 100 µM (inactive)
- GI50 (HOP-92): > 100 µM (inactive)
- GI50 (HCT-15): > 100 µM
- GI50 (DMS-114): > 100 µM (inactive)
- GI50 (SN12C): > 100 µM (inactive)
- GI50 (OVCAR-5): > 100 µM (inactive)
- GI50 (DMS-273): > 100 µM (inactive)
- GI50 (M19-MEL): > 100 µM (inactive)
- GI50 (CCRF-CEM): > 100 µM (inactive)
- GI50 (IGROV-1): > 100 µM (inactive)
- GI50 (SK-OV-3): > 100 µM (inactive)
- GI50 (SNB-19): > 100 µM (inactive)
- GI50 (ACHN): > 100 µM (inactive)
- GI50 (Malme-3M): > 100 µM (inactive)
- GI50 (DLD-1): > 100 µM (inactive)
- GI50 (NCI-H226): > 100 µM (inactive)
- GI50 (MOLT-4): > 100 µM (inactive)
- GI50 (TK-10): > 100 µM (inactive)
- GI50 (SK-MEL-28): > 100 µM (inactive)
- GI50 (786-0): > 100 µM (inactive)
- GI50 (CAKI-1): > 100 µM (inactive)

Compound: CC(=O)O[C@H]1CC[C@@]2(C)C(=CC[C@@H]3C2CC[C@]2(C)Nc4c(cnn4-c4ccccc4)CC32)C1 (stereo partly drawn)
- GI50 (OVCAR-8): 29.4 µM (inactive)
- GI50 (HCT-116): 24.4 µM (inactive)
- GI50 (UO-31): 27.1 µM (inactive)
- GI50 (UACC-62): 18.7 µM (inactive)
- GI50 (RPMI-8226): 2.09 µM (inactive)
- GI50 (A549): 23.7 µM (inactive)
- GI50 (NCI-H23): 28.2 µM (inactive)
- GI50 (U-251): 4.98 µM (inactive)
- GI50 (UACC-257): 12.4 µM (inactive)
- GI50 (HCC 2998): 16 µM (inactive)
- GI50 (LXFL 529): 17.9 µM (inactive)
- GI50 (HOP-62): 12.4 µM (inactive)
- GI50 (SW-620): 19.4 µM (inactive)
- GI50 (NCI-H460): 4.97 µM (inactive)
- GI50 (SNB-78): 14.4 µM (inactive)
- GI50 (KM12): 11.9 µM (inactive)
- GI50 (SK-MEL-2): 54.6 µM (inactive)
- GI50 (XF498): 25.7 µM (inactive)
- GI50 (HL-60): 2.77 µM (inactive)
- GI50 (OVCAR-4): 14.9 µM (inactive)
- GI50 (M14): 46.1 µM (inactive)
- GI50 (SK-MEL-5): 28.1 µM (inactive)
- GI50 (A498): 10.6 µM (inactive)
- GI50 (KM-20L2): 3.78 µM (inactive)
- GI50 (OVCAR-3): 48.2 µM (inactive)
- GI50 (SF-295): 2.69 µM (inactive)
- GI50 (HCT-15): 10.4 µM
- GI50 (DMS-114): 37.1 µM (inactive)
- GI50 (OVCAR-5): 19.2 µM (inactive)
- GI50 (DMS-273): 4.24 µM (inactive)
- GI50 (SF-539): 2.51 µM (inactive)
- GI50 (EKVX): 44.6 µM (inactive)
- GI50 (M19-MEL): 34.2 µM (inactive)
- GI50 (CCRF-CEM): 5.51 µM (inactive)
- GI50 (IGROV-1): 20.6 µM (inactive)
- GI50 (SK-OV-3): 27.8 µM (inactive)
- GI50 (HT-29): 4.82 µM (inactive)
- GI50 (ACHN): 13.8 µM (inactive)
- GI50 (Malme-3M): 29.9 µM (inactive)
- GI50 (RXF 393): 3.53 µM (inactive)
- GI50 (SNB-75): 4.07 µM (inactive)
- GI50 (DLD-1): 21.4 µM (inactive)
- GI50 (NCI-H226): > 100 µM (inactive)
- GI50 (MOLT-4): 2.07 µM (inactive)
- GI50 (TK-10): 56.5 µM (inactive)
- GI50 (SK-MEL-28): 10.4 µM (inactive)
- GI50 (786-0): 4.73 µM (inactive)
- GI50 (CAKI-1): 15.3 µM (inactive)

Compound: CCCCCCCCOC(CO)CO
- GI50 (OVCAR-8): > 100 µM (inactive)
- GI50 (HCT-116): > 100 µM (inactive)
- GI50 (UO-31): > 100 µM (inactive)
- GI50 (UACC-62): > 100 µM (inactive)
- GI50 (COLO 205): > 100 µM (inactive)
- GI50 (K562): > 100 µM (inactive)
- GI50 (SF-268): > 100 µM (inactive)
- GI50 (HOP-18): > 100 µM (inactive)
- GI50 (RPMI-8226): > 100 µM (inactive)
- GI50 (LOX IMVI): > 100 µM (inactive)
- GI50 (A549): > 100 µM (inactive)
- GI50 (NCI-H23): > 100 µM (inactive)
- GI50 (U-251): > 100 µM (inactive)
- GI50 (UACC-257): > 100 µM (inactive)
- GI50 (HCC 2998): > 100 µM (inactive)
- GI50 (LXFL 529): > 100 µM (inactive)
- GI50 (HOP-62): > 100 µM (inactive)
- GI50 (SR): > 100 µM (inactive)
- GI50 (SW-620): > 100 µM (inactive)
- GI50 (NCI-H460): > 100 µM (inactive)
- GI50 (HL-60): > 100 µM (inactive)
- GI50 (OVCAR-4): > 100 µM (inactive)
- GI50 (M14): > 100 µM (inactive)
- GI50 (SK-MEL-5): > 100 µM (inactive)
- GI50 (A498): > 100 µM (inactive)
- GI50 (KM-20L2): > 100 µM (inactive)
- GI50 (OVCAR-3): > 100 µM (inactive)
- GI50 (SF-295): > 100 µM (inactive)
- GI50 (HOP-92): 44.6 µM (inactive)
- GI50 (HCT-15): > 100 µM
- GI50 (DMS-114): > 100 µM (inactive)
- GI50 (SN12C): > 100 µM (inactive)
- GI50 (OVCAR-5): > 100 µM (inactive)
- GI50 (DMS-273): > 100 µM (inactive)
- GI50 (M19-MEL): > 100 µM (inactive)
- GI50 (CCRF-CEM): > 100 µM (inactive)
- GI50 (IGROV-1): > 100 µM (inactive)
- GI50 (SK-OV-3): > 100 µM (inactive)
- GI50 (SNB-19): > 100 µM (inactive)
- GI50 (HT-29): > 100 µM (inactive)
- GI50 (ACHN): > 100 µM (inactive)
- GI50 (Malme-3M): > 100 µM (inactive)
- GI50 (DLD-1): > 100 µM (inactive)
- GI50 (NCI-H226): > 100 µM (inactive)
- GI50 (MOLT-4): > 100 µM (inactive)
- GI50 (TK-10): > 100 µM (inactive)
- GI50 (SK-MEL-28): > 100 µM (inactive)
- GI50 (786-0): > 100 µM (inactive)
- GI50 (CAKI-1): > 100 µM (inactive)

From ChEMBL document CHEMBL1201862, “PubChem BioAssay data set” (2004)
